These results are taken from US5527811A, “Isoquinolinyl compounds which are useful in treating cerebral vascular disorders” (Takeda Chemical Industries, Ltd., priority 1993, dated 1996).

Where two headings read alike, the source gives them in different places.

In assay [1] the test system is cytosolic free Ca^2+ in hippocampal neurons. The assay can be described thus: Effect on cytosolic free Ca^2+ concentration in neurons (L-glutamic acid-induced [Ca^2+]i increase, fura-2). The class given is cell-based. The following applies: Rattus norvegicus, Hippocampal neuron, L-Glu.-induced [Ca^2+]i increase. The method, then:
Effect on cytosolic free Ca^2+ concentration in neurons
Neurons were harvested from hippocampi of 18-day-old rat embryos and cultured based on the method of Hatanaka and Tsukui (Developmental Brain Research, 30, 47-56, 1986). Hippocampal neurons suspended in Dulbecco's modified Eagle's medium were seeded on cover glass slides (10×20 mm, Matunami No. 1, Osaka, Japan) coated with poly-L-lysin at a density of 2.5×10^5 cells/slide and cultured for 7 days in humidified CO2 incubator (95% air/5% CO2) at 37° C. The neurons were washed 3 times with HEPES [N-(2-hydroxyethyl)piperazine-N'-2-ethanesulfonic acid]-buffered physiological salt solution (PSS) (140 mM NaCl, 5 mM KCl, 1 mMMgSO4, 1 mM Na2 HPO4, 1 mM CaCl2, 25 mM glucose, 25 mM HEPES, pH7.4), and then loaded with fura-2 acetoxymethyl ester (4 μM) in HEPES-buffered PSS for 60 min at 37° C. The cover glass slide coated with neurons, which were loaded with fura-2, was inserted into a cuvette that contained 2.5 ml HEPES-buffered PSS supplemented with 0.05% bovine serum albumin. Ca2+ -fura-2 fluorescence was measured with Hitachi F-2000 spectrofluorimeter by 340 nm and 380 nm for excitation and 505 nm for emission. Cytosolic free Ca^2+ concentration ([Ca^2+ ]i) values were calculated according to the method of Grynkiewicz et. al, (Journal of Biological Chemistry, 260, 3440-3450, 1985). Neurons were treated with example-compounds 5 min before the addition of L-glutamic acid (L-Glu.).
L-Glu. leads to two phases-increase of [Ca^2+ ]i in neurons. The first increase of [Ca^2+ ]i is caused by the release from cellular Ca^2+ stores and the influx of extracellular Ca^2+. The second one is caused by the influx of extracellular Ca^2+. The effect of the drug on these two phases-increase of [Ca^2+ ]i was examined and the 50% inhibitory dose (IC50) was calculated.

For assay [2], the system named is brain edema in male wistar rats. Briefly: Anti-brain edema effect (middle cerebral arterial occlusion and reperfusion model). The class given is in vivo, rat (wistar). Conditions: 10 mg/kg(ip) × 7, rat, 3rd day after reperfusion, * p < 0.05. An excerpt: Test Example 2 Anti-brain edema effect (middle cerebral arterial occlusion and reperfusion model)
Male wistar rats (Jcl:9wks) were anesthetized with inhalation of halothane (2-bromo-2-chloro-1,1,1-trifluoroethane). After the incision of neck, bilateral common carotid arteries were […] an embolized needle (diameter 0.3 mm, length 26 mm nylon thread) was inserted into the left internal carotid artery through external carotid artery and, simultaneously, the bilateral common carotid arteries were occluded by the Sugita's aneurysm clips. The embolized needle and the clips were removed out 30 minutes after occlusion. Test sample was administered immediately and 5 hr after reperfusion on the operated day, twice a day on the 1st and 2nd day, and 1 hr before removing the brain on the 3rd day (total 7 times), intraperiatonelly. In the control group, vehicle (distilled water, saline or 5% gum arabic) was administered in the same fasion. Brain edema on the 3rd day after reperfusion was estimated from the content of water, potassium and sodium in cerebral cortex and striatum. Water content was calculated from the ratio of dried brain weight and wet brain weight [(1-dried weight/wet weight)×100%]. The contents of pottasium and sodium were measured using the solution extracted from dried brain tissue with 14% nitric acid by the method of the framephotometer (Table 3).

Assay [3] has as its system transient cerebral ischemia in mongolian gerbils. The assay can be described thus: Protective effect of cerebralischemia: survival ratio after bilateral common carotid occlusion and reperfusion in gerbils. It is filed as in vivo, mongolian gerbil. Conditions: Meriones unguiculatus; 5 mg/kg, ip; 30 min before occlusion and 90 min after reperfusion; estimated 8 hr after reperfusion; control 0; read-out: Survival ratio. The method, then: Test Example 1 Protective effect of cerebralischemia
Male mongolian gerbils (Seiwa/8-10 wks) (n=8-10) were used. Bilateral common carotid arteries were occluded after the incision of the center of the neck under ether anesthesia. Global cerebral ischemia was induced by the occlusion of bilateral common carotid arteries (15 minutes), and after that these arteries were reperfused. Test sample was administered intraperiatonelly 30 minutes before occlusion and 90 minutes after reperfusion. In the control group, vehicle (distilled water, saline or 5% gum arabic) was administered in the same fashion. Survival ratio was estimated at 8 hr after reperfusion (Table 2).

For assay [4], the target named is T1, substance P receptor from human lymphoblast cells (IM-9) (Homo sapiens, UniProt P25103).
T1 construct: The receptor was prepared from human lymphoblast cells (IM-9); endogenous in cells; host or cells: IM-9 human lymphoblast cells (washed membrane preparation)
T1 sequence (P25103 whole entry): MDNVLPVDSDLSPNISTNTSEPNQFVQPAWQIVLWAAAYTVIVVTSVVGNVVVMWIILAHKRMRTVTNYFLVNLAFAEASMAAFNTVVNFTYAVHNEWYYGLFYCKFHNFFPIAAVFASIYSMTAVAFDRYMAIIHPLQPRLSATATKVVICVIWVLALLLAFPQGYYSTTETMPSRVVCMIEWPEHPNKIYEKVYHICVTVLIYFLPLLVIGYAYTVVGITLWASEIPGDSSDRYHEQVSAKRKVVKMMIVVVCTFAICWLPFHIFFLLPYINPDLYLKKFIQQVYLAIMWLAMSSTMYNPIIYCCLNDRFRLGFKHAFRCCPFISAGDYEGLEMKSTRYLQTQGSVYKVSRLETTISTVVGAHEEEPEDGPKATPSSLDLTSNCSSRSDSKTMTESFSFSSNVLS
The assay can be described thus: Radioligand receptor binding inhibitory assay using receptor from human lymphoblast cells (IM-9), 125I-BHSP. Conditions: 25° C., 30 minutes, pH 7.4. The procedure:
Radioligand receptor binding inhibitory assay using receptor from human lymphoblast cells (IM-9)
The method of "A. Margaret et al. Molecular Pharmacology 42, 458 (1992)" was modified and used. The receptor was prepared from human lymphoblast cells (IM-9). IM-9 cells were grown in 175 cm^2 tissue culture flasks (100 ml z 10) at a density approximately 2×10^5 /ml of RPMI 1640 with L-glutamine, 10% (V/V) heat inactivated fetal calf serum, penicillin (100 u/ml), and streptomycin (100 μg/ml) at 37° C. in 5%CO2 /95% air for 3 days. IM-9 cells were obtained by centrifugation at 500 Xg for 5 minutes at 5° C. The pellet obtained was washed once with phosphate buffer (Flow Laboratories, CAT No. 28-103-05), homogenized using Polytron homogenizer (Kinematika, Germany) in 30 ml of 50 mM Tris-HCl buffer containing 120 mM NaCl, 5 mM KCl, 2 μg/ml phenylmethyl sufonyl fluoride, and 1 mM ethylenediamine tetra-acetic acid and then centrifuged at 40,000 Xg for 20 minutes. The residue was washed twice with 30 ml of buffer described above, and preserved frozen (-80° C.).
The above specimen was suspended in a reaction buffer (50 mM Tris-HCl buffer (pH 7.4), 0.02% bovine serum albumin, 1 mM phenylmethylsufonyl fluoride, 2 μg/ml chymostatin, 40 μg/ml bacitracin, 3 mM manganese chloride) at a protein concentration of 1.5 mg/ml and a 100 μl portion of the suspension was used in the reaction. After addition of the sample and 125I-BHSP (0.46 KBq), the reaction was conducted in 0.2 ml of reaction buffer at 25° C. for 30 minutes. The amount of nonspecific binding was determined by adding substance P at a final concentration of […]. After the reaction, using a cell harvester (290PHD, Cambridge Technology, Inc., England), rapid filtration was carried out through a glass filter (GF/B, Whatman, U.S.A.) to stop the reaction. After washing three times with 250 μl of 50 mM Tris-HCl buffer (pH 7.4) containing 0.02% bovine serum albumin, the radioactivity remaining on the filter was measured with a gamma counter. Before use, the filter was immersed in 0.1% polyethyleneimine for 24 hours and air-dried. […]

The term IC50 denotes the point on the concentration scale where inhibition reaches its midpoint. Consider `CC(C)Oc1cccc(NC(=O)NCc2c(-c3ccccc3)c3cc(Cl)ccc3c(=O)n2C)c1` [Example 1, N-[(6-Chloro-1,2-dihydro-2-methyl-1-oxo-4-phenylisoquinolin-3-yl)methyl]-N'-(3isopropoxyphenyl)urea], for which the half-maximal inhibitory concentration (IC50) was 69 nM in assay [1] (with EGTA, 1st phase (release from cellular Ca^2+ stores), read-out: IC50 with EGTA, 1st Phase); 3000 nM in assay [1] (without EGTA, 1st phase, read-out: IC50 without EGTA, 1st Phase); over 10000 nM in assay [1] (without EGTA, 2nd phase, read-out: IC50 without EGTA, 2nd Phase). In assay [2] (control 81.27 (Example 1), 80.94 (Example 15(HCl))), the “H2O (water content of brain)” value stood at 80.12 ± 0.32%. For the same molecule, the “Na (sodium content of brain)” value in assay [2] (control 405 (Example 1), 371 (Example 15(HCl))) is recorded as 322 ± 24 mEq/kg. Besides, the “K (potassium content of brain)” value in assay [2] (control 430 (Example 1), 440 (Example 15(HCl))) is 471 ± 13 mEq/kg. For the same molecule, the responders at 5 mg/kg in assay [3] is 88%.

As for `CN(Cc1c(-c2ccccc2)c2ccccc2c(=O)n1C)C(=O)c1cc(C(F)(F)F)cc(C(F)(F)F)c1` [Example 37, 3,5-Bis(trifluoromethyl)-N-[(1,2-dihydro-2-methyl-1-oxo-4-phenylisoquinolin-3-yl)methyl]-N-methyl benzamide], the half-maximal inhibitory concentration (IC50) in assay [4] was 1 nM.

In assay [4], `CN(Cc1c(-c2ccccc2)c2cc(Cl)ccc2c(=O)n1C)C(=O)c1cc(C(F)(F)F)cc(C(F)(F)F)c1` [Example 38, 3,5-Bis(trifluoromethyl)-N-[(6-chloro-1,2-dihydro-2-methyl-1-oxo-4-phenylisoquinolin-3-yl)methyl]-N-methylbenzamide] registered a 50% inhibitory concentration (IC50) of 72 nM.

For `Cc1cc2c(-c3ccccc3)c(CN(C)C(=O)c3cc(C(F)(F)F)cc(C(F)(F)F)c3)n(C)c(=O)c2cc1C` [Example 36, 3,5-Bis(trifluoromethyl)-N-[(1,2-dihydro-2,6,7-trimethyl-1-oxo-4-phenylisoquinolin-3-yl)methyl]-N-methylbenzamide], the IC50 in assay [4] worked out at 47 nM.
